# Data as given in paper PMC11873239, “A covalent chemical probe for Chikungunya nsP2 cysteine protease with antialphaviral activity and proteome-wide selectivity” (Scientific Reports, 2025).
# Key:
# [1] = tested on: CHIKV-nLuc; assay: microbe, parasite or virus in culture; format: cell-based; settings: Chikungunya virus, MRC5, 6 h, read-out: EC50 (CHIKV-nLuc replication)
# [2] = target: HEK293 cell lysate proteins (Homo sapiens, UniProt Q13867); format: binding
# [3] = target: HEK293 cell lysate proteins (Homo sapiens, UniProt Q15424); format: binding
# [4] = target: HEK293 cell lysate proteins (Homo sapiens, UniProt Q01469); format: binding
# Chain of HEK293 cell lysate proteins (Homo sapiens, UniProt Q01469) (Q01469 whole entry, looked up): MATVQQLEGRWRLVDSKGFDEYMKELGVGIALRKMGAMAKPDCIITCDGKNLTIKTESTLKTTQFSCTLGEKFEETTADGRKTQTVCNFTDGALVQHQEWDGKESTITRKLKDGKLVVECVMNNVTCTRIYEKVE
# [5] = target: HEK293 cell lysate proteins (Homo sapiens, UniProt P14923); format: binding
# [6] = target: HEK293 cell lysate proteins (Homo sapiens, UniProt P27708); format: binding
# Chain of HEK293 cell lysate proteins (Homo sapiens, UniProt P27708) (P27708 whole entry): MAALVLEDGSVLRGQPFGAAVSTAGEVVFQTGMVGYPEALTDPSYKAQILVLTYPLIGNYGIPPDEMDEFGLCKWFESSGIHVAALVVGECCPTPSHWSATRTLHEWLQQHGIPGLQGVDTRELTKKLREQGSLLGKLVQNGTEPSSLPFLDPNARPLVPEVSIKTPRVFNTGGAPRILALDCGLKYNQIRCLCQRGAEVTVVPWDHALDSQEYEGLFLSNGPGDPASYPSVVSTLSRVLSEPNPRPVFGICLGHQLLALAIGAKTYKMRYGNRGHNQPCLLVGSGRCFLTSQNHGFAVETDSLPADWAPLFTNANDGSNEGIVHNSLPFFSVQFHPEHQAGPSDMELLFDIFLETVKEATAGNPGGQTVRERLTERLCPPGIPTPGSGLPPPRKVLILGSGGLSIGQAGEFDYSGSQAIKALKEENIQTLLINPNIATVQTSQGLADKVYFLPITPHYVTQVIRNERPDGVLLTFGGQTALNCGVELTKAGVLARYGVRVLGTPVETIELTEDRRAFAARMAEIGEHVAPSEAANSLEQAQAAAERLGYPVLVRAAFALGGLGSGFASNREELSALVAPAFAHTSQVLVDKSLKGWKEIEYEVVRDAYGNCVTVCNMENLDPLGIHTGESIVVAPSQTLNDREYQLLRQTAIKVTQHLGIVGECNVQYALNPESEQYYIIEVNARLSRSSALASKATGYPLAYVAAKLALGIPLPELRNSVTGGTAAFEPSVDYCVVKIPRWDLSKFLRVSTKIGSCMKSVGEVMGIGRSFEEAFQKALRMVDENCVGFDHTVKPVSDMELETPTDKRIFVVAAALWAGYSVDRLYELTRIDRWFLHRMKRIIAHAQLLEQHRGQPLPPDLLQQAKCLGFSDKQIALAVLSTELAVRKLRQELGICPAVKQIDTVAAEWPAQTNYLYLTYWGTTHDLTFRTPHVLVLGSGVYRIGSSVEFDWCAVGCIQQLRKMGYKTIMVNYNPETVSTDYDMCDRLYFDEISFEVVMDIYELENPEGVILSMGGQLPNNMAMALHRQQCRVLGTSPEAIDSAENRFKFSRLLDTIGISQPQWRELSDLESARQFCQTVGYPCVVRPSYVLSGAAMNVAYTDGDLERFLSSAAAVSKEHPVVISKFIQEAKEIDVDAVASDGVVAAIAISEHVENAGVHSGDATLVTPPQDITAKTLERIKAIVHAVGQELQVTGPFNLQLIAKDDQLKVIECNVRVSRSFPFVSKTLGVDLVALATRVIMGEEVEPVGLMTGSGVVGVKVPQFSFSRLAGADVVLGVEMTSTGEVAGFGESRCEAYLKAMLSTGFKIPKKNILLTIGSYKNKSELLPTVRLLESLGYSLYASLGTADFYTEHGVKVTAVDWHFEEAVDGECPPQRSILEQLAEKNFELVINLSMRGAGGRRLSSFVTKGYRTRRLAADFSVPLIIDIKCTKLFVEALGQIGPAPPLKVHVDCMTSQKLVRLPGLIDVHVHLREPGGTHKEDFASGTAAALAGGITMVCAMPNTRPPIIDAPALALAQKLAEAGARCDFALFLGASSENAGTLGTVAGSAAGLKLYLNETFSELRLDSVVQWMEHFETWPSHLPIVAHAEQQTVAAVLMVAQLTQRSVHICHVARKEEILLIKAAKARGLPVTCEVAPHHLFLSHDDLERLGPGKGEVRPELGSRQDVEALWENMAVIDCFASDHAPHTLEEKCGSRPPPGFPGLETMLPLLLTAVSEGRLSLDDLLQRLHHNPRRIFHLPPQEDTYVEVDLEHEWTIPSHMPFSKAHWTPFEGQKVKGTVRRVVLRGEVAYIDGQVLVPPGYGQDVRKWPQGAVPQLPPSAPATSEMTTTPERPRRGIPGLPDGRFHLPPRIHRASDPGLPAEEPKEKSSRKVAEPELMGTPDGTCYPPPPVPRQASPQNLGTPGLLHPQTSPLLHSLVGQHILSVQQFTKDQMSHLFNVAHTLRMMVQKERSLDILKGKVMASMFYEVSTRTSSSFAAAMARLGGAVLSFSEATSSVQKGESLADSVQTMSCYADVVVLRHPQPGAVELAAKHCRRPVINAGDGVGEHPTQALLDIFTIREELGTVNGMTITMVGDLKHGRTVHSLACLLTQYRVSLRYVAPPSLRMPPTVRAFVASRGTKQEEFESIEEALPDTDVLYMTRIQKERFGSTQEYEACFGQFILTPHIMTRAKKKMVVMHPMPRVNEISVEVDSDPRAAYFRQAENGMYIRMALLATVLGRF
# [7] = target: HEK293 cell lysate proteins (Homo sapiens, UniProt P31944); format: binding
# Chain of HEK293 cell lysate proteins (Homo sapiens, UniProt P31944) (P31944 6-242): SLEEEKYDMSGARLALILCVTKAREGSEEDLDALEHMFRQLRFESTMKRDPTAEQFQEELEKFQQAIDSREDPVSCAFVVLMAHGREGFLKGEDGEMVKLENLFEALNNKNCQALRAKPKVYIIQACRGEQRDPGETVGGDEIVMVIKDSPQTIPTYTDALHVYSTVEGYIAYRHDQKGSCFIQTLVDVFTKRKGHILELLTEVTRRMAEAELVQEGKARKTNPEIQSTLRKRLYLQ
# [8] = target: HEK293 cell lysate proteins (Homo sapiens, UniProt Q5T749); format: binding
# [9] = target: HEK293 cell lysate proteins (Homo sapiens, UniProt P07355); format: binding
# [10] = target: HEK293 cell lysate proteins (Homo sapiens, UniProt P81605); format: binding
# [11] = target: HEK293 cell lysate proteins (Homo sapiens, UniProt Q5T750); format: binding
# Chain of HEK293 cell lysate proteins (Homo sapiens, UniProt Q5T750) (Q5T750 whole entry): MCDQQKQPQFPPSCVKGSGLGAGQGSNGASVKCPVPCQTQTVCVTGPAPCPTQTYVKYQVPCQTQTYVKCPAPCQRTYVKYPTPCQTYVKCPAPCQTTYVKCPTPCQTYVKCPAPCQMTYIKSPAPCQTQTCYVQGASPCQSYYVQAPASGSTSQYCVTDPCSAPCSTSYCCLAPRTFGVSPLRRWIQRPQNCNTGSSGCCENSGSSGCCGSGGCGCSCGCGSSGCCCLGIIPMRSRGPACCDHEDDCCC
# [12] = target: HEK293 cell lysate proteins (Homo sapiens, UniProt Q8N1N4); format: binding
# [13] = target: HEK293 cell lysate proteins (Homo sapiens, UniProt P02788); format: binding
# [14] = target: HEK293 cell lysate proteins (Homo sapiens, UniProt P15924); format: binding
# [15] = target: HEK293 cell lysate proteins (Homo sapiens, UniProt P61626); format: binding
# Chain of HEK293 cell lysate proteins (Homo sapiens, UniProt P61626) (P61626 19-148): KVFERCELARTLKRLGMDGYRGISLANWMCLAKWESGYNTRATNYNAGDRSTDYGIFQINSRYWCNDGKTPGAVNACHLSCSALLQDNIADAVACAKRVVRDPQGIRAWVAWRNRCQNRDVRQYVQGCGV
# [16] = target: HEK293 cell lysate proteins (Homo sapiens, UniProt P04264); format: binding
# [17] = target: HEK293 cell lysate proteins (Homo sapiens, UniProt Q03164); format: binding
# [18] = target: HEK293 cell lysate proteins (Homo sapiens, UniProt P22735); format: binding
# [19] = target: HEK293 cell lysate proteins (Homo sapiens, UniProt Q08188); format: binding
# [20] = target: HEK293 cell lysate proteins (Homo sapiens, UniProt P11142); format: binding
# [21] = target: HEK293 cell lysate proteins (Homo sapiens, UniProt Q3KQU3); format: binding
# [22] = target: HEK293 cell lysate proteins (Homo sapiens, UniProt P31151); format: binding
# Chain of HEK293 cell lysate proteins (Homo sapiens, UniProt P31151) (P31151 whole entry): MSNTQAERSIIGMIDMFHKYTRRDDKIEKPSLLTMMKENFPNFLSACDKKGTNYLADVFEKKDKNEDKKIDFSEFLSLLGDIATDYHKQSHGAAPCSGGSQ
# [23] = target: HEK293 cell lysate proteins (Homo sapiens, UniProt Q15517); format: binding
# [24] = target: HEK293 cell lysate proteins (Homo sapiens, UniProt Q6ZVX7); format: binding
# [25] = target: HEK293 cell lysate proteins (Homo sapiens, UniProt Q9HCY8); format: binding
# [26] = target: HEK293 cell lysate proteins (Homo sapiens, UniProt P05089); format: binding
# Chain of HEK293 cell lysate proteins (Homo sapiens, UniProt P05089) (P05089 whole entry): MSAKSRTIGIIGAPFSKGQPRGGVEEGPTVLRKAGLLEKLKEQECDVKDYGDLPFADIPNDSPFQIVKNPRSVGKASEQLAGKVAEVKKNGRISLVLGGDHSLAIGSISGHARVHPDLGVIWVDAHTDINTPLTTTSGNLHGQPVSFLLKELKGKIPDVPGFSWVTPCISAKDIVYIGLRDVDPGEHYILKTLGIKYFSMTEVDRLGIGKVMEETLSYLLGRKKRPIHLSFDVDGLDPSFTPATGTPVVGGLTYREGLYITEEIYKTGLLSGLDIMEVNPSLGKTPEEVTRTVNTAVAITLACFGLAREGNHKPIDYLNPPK
# [27] = target: HEK293 cell lysate proteins (Homo sapiens, UniProt A8K2U0); format: binding
# [28] = target: HEK293 cell lysate proteins (Homo sapiens, UniProt P06702); format: binding
# Chain of HEK293 cell lysate proteins (Homo sapiens, UniProt P06702) (P06702 whole entry): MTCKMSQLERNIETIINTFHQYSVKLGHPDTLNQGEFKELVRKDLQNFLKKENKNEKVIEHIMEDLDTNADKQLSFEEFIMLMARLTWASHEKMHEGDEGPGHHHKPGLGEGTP
# [29] = target: HEK293 cell lysate proteins (Homo sapiens, UniProt Q02413); format: binding
# [30] = target: HEK293 cell lysate proteins (Homo sapiens, UniProt P0DOX5); format: binding
# [31] = target: HEK293 cell lysate proteins (Homo sapiens, UniProt Q13428); format: binding
# Chain of HEK293 cell lysate proteins (Homo sapiens, UniProt Q13428) (Q13428 whole entry): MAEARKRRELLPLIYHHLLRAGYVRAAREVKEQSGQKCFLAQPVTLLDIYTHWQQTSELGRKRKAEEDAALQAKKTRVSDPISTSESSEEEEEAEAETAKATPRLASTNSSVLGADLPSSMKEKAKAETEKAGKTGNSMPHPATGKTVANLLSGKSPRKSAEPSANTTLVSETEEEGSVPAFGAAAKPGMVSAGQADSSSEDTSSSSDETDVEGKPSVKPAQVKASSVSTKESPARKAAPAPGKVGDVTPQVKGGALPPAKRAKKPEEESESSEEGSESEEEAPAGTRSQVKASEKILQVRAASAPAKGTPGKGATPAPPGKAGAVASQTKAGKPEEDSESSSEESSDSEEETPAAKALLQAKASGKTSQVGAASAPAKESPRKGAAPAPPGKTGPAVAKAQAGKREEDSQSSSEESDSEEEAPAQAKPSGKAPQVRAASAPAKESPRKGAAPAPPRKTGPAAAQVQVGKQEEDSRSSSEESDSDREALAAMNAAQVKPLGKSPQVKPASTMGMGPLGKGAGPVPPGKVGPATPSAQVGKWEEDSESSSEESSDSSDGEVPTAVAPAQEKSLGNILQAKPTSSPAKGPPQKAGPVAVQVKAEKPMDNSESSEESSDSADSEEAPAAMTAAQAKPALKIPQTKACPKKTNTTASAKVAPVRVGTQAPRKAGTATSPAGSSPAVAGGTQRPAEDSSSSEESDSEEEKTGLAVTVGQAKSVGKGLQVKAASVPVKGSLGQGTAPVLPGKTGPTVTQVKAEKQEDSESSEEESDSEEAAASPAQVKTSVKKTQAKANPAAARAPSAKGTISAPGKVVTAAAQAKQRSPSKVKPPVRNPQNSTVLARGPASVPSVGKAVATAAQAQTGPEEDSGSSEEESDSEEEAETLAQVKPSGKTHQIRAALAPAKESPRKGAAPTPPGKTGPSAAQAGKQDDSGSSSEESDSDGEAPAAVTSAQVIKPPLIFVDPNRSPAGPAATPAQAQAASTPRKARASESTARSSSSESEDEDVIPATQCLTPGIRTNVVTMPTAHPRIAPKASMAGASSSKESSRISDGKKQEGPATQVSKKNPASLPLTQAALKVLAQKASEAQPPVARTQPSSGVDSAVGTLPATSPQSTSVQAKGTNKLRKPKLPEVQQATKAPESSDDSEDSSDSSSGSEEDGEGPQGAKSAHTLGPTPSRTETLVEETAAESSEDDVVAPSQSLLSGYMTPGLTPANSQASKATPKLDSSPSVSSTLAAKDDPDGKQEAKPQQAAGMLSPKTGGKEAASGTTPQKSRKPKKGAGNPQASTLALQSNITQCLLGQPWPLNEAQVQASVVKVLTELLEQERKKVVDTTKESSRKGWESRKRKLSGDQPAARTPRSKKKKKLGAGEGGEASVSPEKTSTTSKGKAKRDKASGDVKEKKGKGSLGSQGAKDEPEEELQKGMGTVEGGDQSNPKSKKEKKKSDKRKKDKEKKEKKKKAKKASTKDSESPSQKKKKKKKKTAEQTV
# [32] = target: HEK293 cell lysate proteins (Homo sapiens, UniProt Q86VP6); format: binding
# [33] = target: CHIKV nsP2pro (Chikungunya virus, UniProt F2YI08); assay: biochemical
compound,measurement,setting,value
"C#CCOc1ccccc1-c1cc(C(=O)NC/C=C/S(C)(=O)=O)on1 [VS, (E)-N-(3-(methylsulfonyl)allyl)−3-(2-(prop-2-yn-1-yloxy)phenyl)isoxazole-5-carboxamide]",EC50,[1],33 nM
same,Log2 fold change,[2],1.56
same,Log2 fold change,[3],1.46
same,Log2 fold change,[4],2.38
same,Log2 fold change,[5],1.97
same,Log2 fold change,[6],3.73
same,Log2 fold change,[7],1.29
same,Log2 fold change,[8],2.53
same,Log2 fold change,[9],1.52
same,Log2 fold change,[10],1.36
same,Log2 fold change,[11],2.49
same,Log2 fold change,[12],1.62
same,Log2 fold change,[13],1.10
same,Log2 fold change,[14],2.05
same,Log2 fold change,[15],1.36
same,Log2 fold change,[16],1.49
same,Log2 fold change,[17],-1.44
same,Log2 fold change,[18],1.60
same,Log2 fold change,[19],1.61
same,Log2 fold change,[20],1.15
same,Log2 fold change,[21],-2.07
same,Log2 fold change,[22],-1.22
same,Log2 fold change,[23],1.22
same,Log2 fold change,[24],2.74
same,Log2 fold change,[25],1.98
same,Log2 fold change,[26],1.79
same,Log2 fold change,[27],1.10
same,Log2 fold change,[28],1.63
same,Log2 fold change,[29],1.36
same,Log2 fold change,[30],1.84
same,Log2 fold change,[31],1.02
same,Log2 fold change,[32],-1.19
same,IC50,[33],65 nM
